“Also recorded” adds a separate entry of the source. Read-outs that look alike come from different tables or passages of the source. Some results are limits rather than exact numbers.

For data set [1], the system named is Hepa 1-6 (mouse hepatoma) cells. The experiment in a line: In vitro cellular uptake by fluorescence microscopy, Hepa 1-6. Type of data set: cell-based. The settings on record: 0.150 μmol in 220 μl via mixing chamber, 30 sec exposure.
Protocol: In Vitro cellular uptake of PI, RRH-PI compounds, and IV evaluated by fluorescence measurements. PI and the RRH-prodrugs were tested for cellular uptake on several cell lines which included B16 (murine melanoma), Hepa 1-6 (mouse hepatoma), SK-OV-3 (also SKOV-3, human ovarian carcinoma), OVCAR-3 (human ovarian carcinoma), Jurkat (human T-lymphocyte), 293 (human embryonic kidney), and MC38 (mouse colon carcinoma) cells. Adherent cells were plated at 2.5×10^5 cells/well on 6-well plates 24 h prior to testing. The growth media was removed from individual wells and the drug/prodrug was immediately added to the well with the mixing chamber. Final drug/prodrug concentrations were 0.150 μmol in 220 μl total volume (20 μl OS, 200 μl ITG). After 30 sec the drug solution was removed (aspirated) and 2 ml complete media was added to the cells. Experiments conducted with prodrug that was hydrolyzed prior to application to the cells followed a similar protocol, however the combined solution obtained after passing through the mixing chamber was collected and allowed to sit at ambient temperature for 5 min prior to application on the cells. […] SYTOX Green (20 μl of 5 μM solution in 20 mM Hepes, pH 7.4) was added to the wells and the cells were examined. Each condition was repeated in 2 or 3 wells, and the cells were immediately examined by microscopy. Fluorescent microscopy studies were conducted with a three laser LSM 510 confocal microscope, an Axiovert S100 fluorescent microscope, or an Axioplan2 fluorescent microscope (all Zeiss) equipped with filter sets for the rhodamine fluorescence channel (λex=BP 450/12, λem=LP 590 nm filter set) and the fluorescein fluorescent channel (λex=BP 546/90, λem=LP 515 nm filter set). Imaging was performed with an AxioCam digital camera (Zeiss), with AxioVision imaging software (V 4.5, Zeiss). For all images, identical camera settings and exposure times were used on comparative sample and control images. Images were processed with Photoshop (Adobe) for level and brightness using identical settings between sample and control images.
Data set [2] deals with SK-OV-3 (human ovarian carcinoma) cells. Put plainly: In vitro cellular uptake by fluorescence microscopy, SK-OV-3. The settings on record: for PI positive cells: 0.150 μmol in 220 μl via mixing chamber, 30 sec exposure; for PI positive cells, prodrug premixed with ITG: premixed with ITG (5 min) before application to the cells. Type of data set: cell-based. As for the experimental part:
In Vitro cellular uptake of PI, RRH-PI compounds, and IV evaluated by fluorescence measurements. […] Adherent cells were plated at 2.5×10^5 cells/well on 6-well plates 24 h prior to testing. The growth media was removed from individual wells and the drug/prodrug was immediately added to the well with the mixing chamber. […] After 30 sec the drug solution was removed (aspirated) and 2 ml complete media was added to the cells. Experiments conducted with prodrug that was hydrolyzed prior to application to the cells followed a similar protocol, however the combined solution obtained after passing through the mixing chamber was collected and allowed to sit at ambient temperature for 5 min prior to application on the cells. Experiments conducted with Calcein AM (Invitrogen, 100 μl of 20 μM solution in complete media) followed a similar protocol for drug treatment (4 min treatment). Experiments conducted with SYTOX Green (Invitrogen) followed a similar protocol for drug treatment. […] Each condition was repeated in 2 or 3 wells, and the cells were immediately examined by microscopy. Fluorescent microscopy studies were conducted with a three laser LSM 510 confocal microscope, an Axiovert S100 fluorescent microscope, or an Axioplan2 fluorescent microscope (all Zeiss) equipped with filter sets for the rhodamine fluorescence channel (λex=BP 450/12, λem=LP 590 nm filter set) and the fluorescein fluorescent channel (λex=BP 546/90, λem=LP 515 nm filter set). Imaging was performed with an AxioCam digital camera (Zeiss), with AxioVision imaging software (V 4.5, Zeiss). For all images, identical camera settings and exposure times were used on comparative sample and control images. Images were processed with Photoshop (Adobe) for level and brightness using identical settings between sample and control images. For experiments conducted with IV, the cells were plated on 6-well plates with cover slips. […] Imaging was conducted on an Axioplan2 fluorescent microscope (Zeiss) and the same fields were imaged with phase contrast illumination, in the rhodamine fluorescence channel (λex=BP 450/12, λem=LP 590 nm filter set), and in the fluorescein fluorescent channel (λex=BP 546/90, λem=LP 515 nm filter set). IV was also mixed with PI and then delivered to SK-OV-3 cells, and the cells were imaged as before. In one protocol, equal amounts of IV (15.0 mM in DMSO) and PI (15.0 mM in DMSO) were combined and the resulting solution was added to cells via the mixing chamber. In a second method, PI was taken up in the ITG solution (0.748 mM) and mixed with IV (7.48 mM in DMSO) in the mixing chamber. […] The cells were imaged as before following 30 sec-4 min exposure to the drug solution.

Data set [3] relates to Hepa 1-6 (mouse hepatoma). The experiment in a line: WST cytotoxicity assay, Hepa 1-6. The settings on record: for IC50: Hepa 1-6, 4 min drug exposure, read-out: Mean IC50. Type of data set: cell-based. As for the experimental part: Antiproliferative/Cytotoxic in vitro studies on PI, RRH-PI prodrugs, melphalan, and C12PMMA-melphalan. In vitro cytotoxicity testing was conducted on Hepa 1-6 (mouse hepatoma), SK-OV-3 (human ovarian carcinoma), and MC38 (mouse colon carcinoma) cells using a tetrazolium based assay (WST, Dojindo Molecular Technologies). For the WST assay, Hepa 1-6 (2.0×10^5 cells well), SK-OV-3 (7.5×10^5 cells well), and MC38 (8.5×10^5 cells well) were seeded in 1000 μL media into 12-well plates 24 h prior to testing (starting confluency ˜50%). Following removal of media, drug/prodrug solution was added drop-wise to quadruplicate wells, using the mixing chamber. Effective drug concentrations were calculated from the amount of drug added in the total volume of OS and aqueous solution. Following 4 min of drug solution exposure, the solution was removed, and 1000 μl fresh complete media was added to each well. After the cells were incubated for 24-48 h, WST-1 (20 μl of a 5 mM solution in PBS) and N-methylphenazonium methyl sulfate (PMS, 20 μl 0.2 mM solution in PBS) were added and the cells were incubated for 1-4 h. For testing with MC38 cells, the amounts of WST-1 and PMS were doubled. Following incubation, 100 μl of sample was transferred to quadruplicate wells on a 96-well plate, and the absorbance (438 nm) values were measured on a SPECTRAmax Plus^384 microplate spectrophotometer (Molecular Devices Corporation). Data represents the mean A438 values of 16 wells with standard deviation, corrected for media contribution, and normalized against cells in media with no drug/prodrug treatment (reported as % cell viability±standard deviation).
The concentration of drug (μM) that is required for 50% inhibition in vitro is reported as the IC50. The reported values were calculated from the best fit line (Excel) for a plot of effective drug concentration against % cell viability, and include the r^2 value. The reported IC50 values for multiple RRH-PI plots are reported as IC50 (μM)±standard deviation.

Data set [4] deals with cells exposed to the peritoneal cavity. The experiment in a line: IP application to normal mice, confocal microscopy. Type of data set: in vivo, mouse. The conditions noted are these: 10-60 min.
Protocol: For evaluation of prodrug delivery to exposed tissues in the peritoneum, we tested IP application of propidium iodide, BDMSODS-PI, and C12PMMA-PI to both normal mice and in a mouse model of disseminated peritoneal ovarian cancer. All procedures were executed under Isoflurane inhalation anesthesia. In normal mice either the abdominal cavity was opened and the drug mixture was directly applied on abdominal organs (220 μL of drug-OS/ITG over 30 sec), or the drug mixture was injected through the abdominal wall (1 mL of drug-OS/ITG over 1 min). For both delivery protocols, the dual pump mixing chamber was used. After 10-60 min, the animals were euthanized and tissues were harvested, frozen, sectioned, stained with ToPro-3 and Phalloidin Alexa 488, and examined by laser confocal microscopy.
Data set [5] deals with MC38 liver metastases. Put plainly: Liver arterial bolus injection (LABI) in mice with MC38 liver metastases. Type of data set: in vivo, C57BL mice. The settings on record: for PI staining of MC38 liver metastases: hepatic artery (LABI) delivery.
Protocol: All surgical procedures were performed under Isoflurane anesthesia. Liver tumors models were established in C57BL mice using MC38 (colon carcinoma) and Hepa 1-6 (hepatoma), in BALB/c mice using B16 (melanoma), and in A/J mice using NXS2 (neuroblastoma) cell lines. Mice were inoculated via the portal vein with 1×10^4 MC38 cells or 0.5-1.25×10^6 Hepa 1-6 cells, or via the tail vein with 0.5-1.25×10^6 B16 or NXS2 cells. Tumor formation was allowed to progress for 2-3 weeks with periodic examination for tumor growth prior to drug/prodrug treatment.
The right gastro-duodenal artery was freed from surrounding tissue and the common hepatic artery was clamped occluding blood flow. The distal part of the right gastroduodenal artery was sutured, a 35 G needle was inserted into the gastroduodenal artery, and secured during the single bolus injection. Following the injection, the needle was retracted and the proximal part of gastroduodenal artery was sutured, and hepatic artery flow was restored. Alternatively, the celiac trunk was clamped close to the aorta and a 35 G needle was inserted above the clamp. The left gastric, splenic, and gastro-duodenal arteries were clamped in order to direct all of the drug solution to the liver. This latter approach was advantageous in the C57BL mouse model because of anatomical variations involving the hepatic artery.
LABI delivery of drug/prodrug (0.150 μmol, 220 μl total injection volume) and controls were performed using the mixing chamber and syringe pumps as previously described. For fluorescent microscopy analysis, the livers were harvested 5 min after LABI, snap frozen in O.C.T. compound, sectioned, stained (for confocal, green—actin (Alexa 488), blue—nuclei (ToPro-3)), and analyzed by fluorescent (Axioplan2) fluorescent microscope (Zeiss) in the rhodamine fluorescence channel (λex=BP 450/12, λem=LP 590 nm filter set) or in the fluorescein fluorescent channel (λex=BP 546/90, λem=LP 515 nm filter set) due to signal intensity) and confocal microscopy (Axioplan 2, Zeiss). For experiments designed to determine the number of PI positive cells, five random fields containing liver tumors and five random fields containing portal triads void of tumor were imaged. The number of cells and positive cells were counted to determine the percentage of positive cells in the corresponding regions.
Data set [6] relates to various tissues of normal mice. The experiment in a line: Propidium iodide delivery to a variety of target cells by injection or topical administration. Type of data set: in vivo, mouse. As for the experimental part: Propidium iodide delivery to a variety of target cells. […] All biliary and gall bladder arteries, as well as bladder epithelium also stained (FIG. 14B). […] During injection time the common carotid artery was temporary occluded. After injection the blood flow was restored and animals sacrificed 5 min later. […] After three weeks, mice were injected with modified PI. […] Injection was performed using similar 35 G needle into right ureter close to the bladder. […] Clamps were then released and 5 min later animals were sacrificed. The intestine lumen was flushed with 1 ml of ITG and analyzed as described above.

The mark [7] stands for this setting: intestinal intra lumen application, 100 μg.

For the compound `CCCCCCCCCCCCCCCCCC[Si](C)(C)Nc1ccc2c(c1)c(-c1ccccc1)[n+](CCC[N+](C)(CC)CC)c1cc(N[Si](C)(C)CCCCCCCCCCCCCCCCCC)ccc21.[I-].[I-]` [II, 3,8-bis[((dimethyl)octadecylsilazyl)amine] 5-(3,3-diethyl-3-methylammoniumpropyl) 6-phenyl phenanthridinium diiodide], in data set [1], the “staining of cells (PI positive)” value is “strong nuclear staining in all of the cells”. Also, the PI positive cells entry in data set [2] is recorded as “nearly all of the cells being PI positive”. The “PI positive cells, prodrug premixed with ITG” value in data set [2] is “very few PI positive cells”; in data set [2] (listed as BDMODS-PI), “did not show PI positive staining”. Further, the cell viability – broadly, a read-out of living cells in per cent, often relative to untreated cells – at highest concentration tested, prodrug premixed with ITG (10 min) in data set [3] (Hepa 1-6, 833 μM) was 108±1.3%. Also, the IC50 (usually the midpoint of a concentration-inhibition curve) in data set [3] (WST 24 h after) was found to be 282 µM; in data set [3] (WST 48 h after) it was 334 µM. In addition, in data set [4], the “nuclear labeling of peritoneal tissues” value is listed as “near-exclusive PI^+-staining of cells exposed to the peritoneal cavity”. Moreover, in data set [5] (LABI, confocal counting), the “cells PI positive in liver parenchyma region” value worked out at 1%. In data set [5] (LABI, confocal counting), the “cells PI positive in portal vein region” value stood at 23%. The “cells PI positive in MC38 metastases” value in data set [5] (LABI, confocal counting, average of five images) is on record as 94%. Also, in data set [5] (after LABI), the “PI positive cells in other organs (heart, lung, spleen, and kidneys)” value was “No PI positive cells were observed in any other organ examined”. The “total number of PI positive non tumor cells in the liver” value in data set [5] (estimated from region counts) is 2-3%. Besides, the “PI staining of MC38 liver metastases” value in data set [5] was “strong nuclear staining of the metastases”; in data set [5] (listed as BDMODS-PI) it was “intense, near-exclusive PI-staining of MC38 liver metastases; also recorded: strongly labeled with PI; also recorded: nearly all cells labeled”. For the same compound, the nuclear staining entry is “strong nuclear staining of all bile duct epithelial cells” in data set [6] (injection into bile duct of normal mouse liver); “strong staining of bladder transitional epithelium” in data set [6] (injection into emptied bladder); “strong nuclear staining of hepatic artery endothelial and smooth-muscle cells” in data set [6] (injection into hepatic artery of normal mouse liver); “strong staining of brain endothelial cells” in data set [6] (injection into right carotid artery); “strong staining of ureter transitional epithelium nuclei” in data set [6] (injection into the ureter); “strong nuclear staining of portal vein cells only” in data set [6] (injection into unclamped portal vein with preserved blood flow). Moreover, the nuclear staining result in data set [6] (setting [7]) is listed as “strong labeling of all enterocyte nuclei”; in data set [6] (portal vein clamped during injection), “propidium iodide staining was observed in a majority of hepatocytes”.

On to `CCCCCCCCCCCCNC(=O)CCC(=CCC(=O)O)C(=O)Nc1ccc2c(c1)c(-c1ccccc1)[n+](CCC[N+](C)(CC)CC)c1cc(NC(=O)C(=CCC(=O)O)CCC(=O)NCCCCCCCCCCCC)ccc21.[I-].[I-]` [III, 3,8-bis-[2-(2 carboxyethylidene)-4-(dodecarbamoyl)-1-oxo-butylamine] 5-(3,3-diethyl-3-methylammoniumpropyl) 6-phenyl phenanthridinium diiodide], for which the “staining of cells (PI positive)” value in data set [1] is “paralleled the results obtained with II”. Also, the PI positive cells entry in data set [2] was “paralleled the results obtained with II”. Besides, the “nuclear labeling of peritoneal tissues” value in data set [4] is recorded as “near-exclusive PI^+-staining of cells exposed to the peritoneal cavity”. The “PI staining of MC38 liver metastases” value in data set [5] was “paralleled the results detailed with II”.

`CC[N+](C)(CC)CCC[n+]1c(-c2ccccc2)c2cc(N)ccc2c2ccc(N)cc21.[I-].[I-]` [PI, Propidium iodide, reference compound]: in data set [1], the “staining of cells (PI positive)” value is “stained very few cells”. The results for the PI positive cells entry in data set [2] and in data set [2] (listed as propidium iodide) were “small percentage of PI positive cells” and “stained very few cells”, respectively. Further, the values for the IC50 in data set [3] (WST 24 h after) and in data set [3] (WST 48 h after) were above 1250 µM and above 1700 µM, respectively. For the same compound, the “nuclear labeling of peritoneal tissues” value in data set [4] was “extremely rare nuclear labeling”. The entries for the “PI staining of MC38 liver metastases” value in data set [5] and in data set [5] (listed as unmodified PI) were “greatly decreased number of PI positive cells within the MC38 metastases” and “Few MC38 metastases labeled”, respectively. Further, the nuclear staining entry in data set [6] (injection into any vessel or bile duct of normal liver) is reported as “little to no nuclear staining”; in data set [6] (setting [7]), “PI staining was observed in a few intestinal villi cells”.

These data come from patent publication US20090074885A1, “Reversible Hydrophobic Modification of Drugs for Improved Delivery to Cells” (Roche Madison Inc., priority 2003, published 2009).
